# Results taken from PubChem BioAssay AID608 (Sanford-Burnham Center for Chemical Genomics, 2007).
# Calls of active or inactive are those of the source. The rule behind the calls is not given here.
# Target: Peptidyl-prolyl cis-trans isomerase FKBP1A (Homo sapiens) (UniProt P62942)
# Assay: small-molecule binding to FKBP12 – biophysical, NMR detection (AID 608)
# Conditions: purified FKBP12
# Peptidyl-prolyl cis-trans isomerase FKBP1A (Homo sapiens), sequence (P62942 whole entry, looked up): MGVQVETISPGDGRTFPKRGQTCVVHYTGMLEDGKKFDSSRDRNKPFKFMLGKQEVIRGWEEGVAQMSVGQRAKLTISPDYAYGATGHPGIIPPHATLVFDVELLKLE
row,SMILES,Kd
1,O=C(Nc1nccs1)c1cccnc1,> 4 mM (inactive)
2,O=C1CN(c2ccccc2)CC(=O)N1,> 4 mM (inactive)
3,Nc1nnc(SCc2ccc(F)cc2Cl)s1,> 4 mM (inactive)
4,O=C1C2CC=C(Cl)CC2C(=O)N1c1ccccc1O (stereo not drawn),> 4 mM (inactive)
5,COc1cc2cc3c4cc(OC)c(OC)cc4cc[n+]3c(C)c2cc1OC,> 4 mM (inactive)
6,COCC(=O)NC1CC(C)(C)NC(C)(C)C1,> 4 mM (inactive)
7,Cc1oc(-c2ccccc2)nc1CC(=O)O,> 4 mM (inactive)
8,O=C(NCc1cccnc1)c1ccccn1,> 4 mM (inactive)
9,NS(=O)(=O)c1ccc(NC(=O)c2ccccc2F)cc1,> 4 mM (inactive)
10,NC(=O)CSc1nc2[nH]ncc2c(=O)[nH]1,> 4 mM (inactive)
11,CC(C)n1c(-c2ccncc2)n[nH]c1=S,> 4 mM (inactive)
12,CC1CN(Cc2ccccn2)CCC1=O (stereo not drawn),> 4 mM (inactive)
13,CCc1nnsc1C(=O)Nc1nccs1,> 4 mM (inactive)
14,NS(=O)(=O)c1ccc(NC(=S)NC2CC2)cc1,> 4 mM (inactive)
15,C=CC(C1=CC(=O)C(OC)=CC1=O)c1ccccc1 (stereo not drawn),> 4 mM (inactive)
16,CCOC(=O)CNc1ncnc2c1nnn2CC,> 4 mM (inactive)
17,CSc1ncc(CO)n1Cc1ccccc1,> 4 mM (inactive)
18,COC(=O)c1ccc(N2CCCC2)nc1,> 4 mM (inactive)
19,Cc1ccc(C(=O)N2CC(=O)NC(=O)C2)cc1,> 4 mM (inactive)
20,c1ccc(-c2noc(-c3cccnc3)n2)nc1,> 4 mM (inactive)
21,CC(=O)Nc1cc(C(N)=O)cc(C(N)=O)c1,> 4 mM (inactive)
22,O=C1CC(=O)N(c2ccccc2)c2ccccc21,> 4 mM (inactive)
23,O=C(O)c1ccc2c(c1)OCCCO2,> 4 mM (inactive)
24,COc1cc2nc(N3CCNCC3)nc(N)c2cc1OC,> 4 mM (inactive)
25,Nc1ccc2c(c1)OCCO2,> 4 mM (inactive)

row,SMILES,Kd
1,O=C1CCNc2cc3ccccc3cc21,> 4 mM (inactive)
2,Clc1ccccc1OCc1nc(-c2ccccn2)no1,> 4 mM (inactive)
3,C(=N\n1cnnc1)/c1cccs1,> 4 mM (inactive)
4,O=C(c1ccccc1)c1cncc(Br)c1,> 4 mM (inactive)
5,Cc1oc(S(=O)(=O)N2CCCCC2)cc1C(=O)O,> 4 mM (inactive)
6,O=C1C=C(Nc2ccc(O)cc2)c2ccccc2C1=O,> 4 mM (inactive)
7,COc1ccc(C(N)=O)cc1N,> 4 mM (inactive)
8,CSc1nc(C)cc(Oc2ccc(=O)n(C)n2)n1,> 4 mM (inactive)
9,NC(=O)C1CCN(C(=O)c2ccccc2F)CC1,> 4 mM (inactive)
10,COc1c(O)cc2c(-c3ccccc3)cc(=O)oc2c1OC,> 4 mM (inactive)
11,O=C(O)c1scc2c1CCCC2,> 4 mM (inactive)
12,CS(=O)(=O)N1CCN(c2ccccc2F)CC1,> 4 mM (inactive)
13,Cc1ccc(C)n1/N=C1\NC(=O)CS1,> 4 mM (inactive)
14,CC(C)Nc1nc2n(c(=O)n1)CCN2C(C)C,> 4 mM (inactive)
15,CCC(C)OC1CCS(=O)(=O)C1 (stereo not drawn),> 4 mM (inactive)
16,O=C1CC(=O)N(c2ccccc2F)C(=S)N1,> 4 mM (inactive)
17,CC(C)(C)C(=O)Nc1ncc(C(F)(F)F)cc1Cl,> 4 mM (inactive)
18,NCc1nc2ccccc2s1,> 4 mM (inactive)
19,NC(=O)C1CCN(C(=O)Nc2ccccc2)CC1,> 4 mM (inactive)
20,COc1ccccc1CNc1nc2nc(C)cc(=O)n2[nH]1,> 4 mM (inactive)
21,Nc1ncnc2c1ncn2C1O[C@H](COP(=O)(O)O)[C@@H](O)[C@H]1O (stereo partly drawn),> 4 mM (inactive)
22,O=[N+]([O-])c1ccc2c(c1)N([O-])C1(CCCCC1)[N+]2=O,> 4 mM (inactive)
23,O=c1/c(=C\c2cccnc2)sc2nc3ccccc3n12,> 4 mM (inactive)
24,O=C(O)c1ccc(-c2cccs2)s1,> 4 mM (inactive)
25,CC(=O)NN1C(=O)/C(=C\c2ccc(O)cc2)SC1=S,> 4 mM (inactive)

row,SMILES,Kd
1,c1ccc2c(c1)[nH]c1cnccc12,> 4 mM (inactive)
2,Cc1cc(=O)oc2cc(O)c(O)cc12,> 4 mM (inactive)
3,COc1cc2[nH]c(=S)n(C)c(=O)c2cc1OC,> 4 mM (inactive)
4,Cn1ncc(N2CCOCC2)c(Cl)c1=O,> 4 mM (inactive)
5,O=C(COc1cc(Cl)c(Cl)cc1Cl)N1CCOCC1,inactive
6,O=C(O)c1cccc(O)c1O,> 4 mM (inactive)
7,CN1CCC(NC(=O)c2c(F)cccc2Cl)CC1,> 4 mM (inactive)
8,CSc1ccccc1NC(=O)c1ccco1,> 4 mM (inactive)
9,CCN1C(=O)N(CO)C2C1N(C)C(=O)N2C (stereo not drawn),> 4 mM (inactive)
10,CC(NC(=O)c1ccco1)C1CCCO1 (stereo not drawn),> 4 mM (inactive)
11,CS(=O)(=O)Nc1cc2c3c(c1)CCN3C(=O)CC2,> 4 mM (inactive)
12,COc1ccc2[nH]cc(CCNC(C)=O)c2c1,> 4 mM (inactive)
13,O=C1C2=C(SCCS2)C(=O)N1CCCO,0.251 mM
14,O=S1(=O)CCC(NC(=S)Nc2ccc(O)cc2)C1 (stereo not drawn),> 4 mM (inactive)
15,Cn1cnc([N+](=O)[O-])c1Sc1ncnc2nc[nH]c12,> 4 mM (inactive)
16,C[C@@H]1OC(O[C@H]2C(O[C@H]3CC[C@@]4(C)C(CC[C@]5(C)C4CC=C4C6CC(C)(C)CC[C@]6(C(=O)O)CC[C@]45C)[C@]3(C)CO)OC[C@H](O)[C@@H]2O)[C@H](O)[C@H](O)[C@H]1O (stereo partly drawn),> 4 mM (inactive)
17,COc1ccc2cc3[n+](cc2c1OC)CCc1cc2c(cc1-3)OCO2,> 4 mM (inactive)
18,O=C(O)c1cncc(-c2cccs2)c1,> 4 mM (inactive)
19,CC(=O)Nc1ccc2c(c1)C(=O)N(C1CCCCC1)C2=O,> 4 mM (inactive)
20,CN1CC(=O)Nc2ccc([N+](=O)[O-])cc2C1=O,> 4 mM (inactive)
21,COC(=O)C1=C(C)N(Cc2ccco2)C(=O)C1,> 4 mM (inactive)
22,COc1ccc(/C=N/n2cn[nH]c2=S)cc1,> 4 mM (inactive)
23,Nc1ccccc1N=C1CNC(=O)C1,> 4 mM (inactive)
24,O=C(c1sc2cccc(Cl)c2c1Cl)N1CCOCC1,inactive
25,Cc1ccc(N2C(=O)CC(Sc3ncn[nH]3)C2=O)cc1 (stereo not drawn),> 4 mM (inactive)

row,SMILES,Kd
1,Cc1ccc(-c2c(C)n([O-])c3c([n+]2=O)CCCC3)o1,> 4 mM (inactive)
2,Nc1nncn1C(=O)c1ccccc1Cl,> 4 mM (inactive)
3,COc1cc(OC)cc(-c2nc(N)n[nH]2)c1,> 4 mM (inactive)
4,COc1cccc(C(=O)N2CCOCC2)c1,> 4 mM (inactive)
5,CC(C)NC(=O)c1cc(=O)n(C)c(=O)n1C,> 4 mM (inactive)
6,Cc1occc1C(=O)Nc1cc(C(C)(C)C)on1,> 4 mM (inactive)
7,O=C(Oc1ccc2c(c1)OCC2=O)c1ccccc1,> 4 mM (inactive)
8,Nc1c2c3c(sc2nc(=O)n1N)CCCC3,> 4 mM (inactive)
9,O=C(NC(=O)N1CCOCC1)c1ccccc1,> 4 mM (inactive)
10,O=c1sc2ccccc2n1CN1CCOCC1,> 4 mM (inactive)
11,Cc1ccc(SCCN2C(=O)NC(C)(C)C2=O)cc1,0.27 mM
12,CCc1c(C(=O)Nc2ccncc2)csc1C,> 4 mM (inactive)
13,CC(=O)c1cc2c(cc1O)OC(C)(C)C=C2,> 4 mM (inactive)
14,Nc1nc(SCC(=O)c2ccc([N+](=O)[O-])cc2)n[nH]1,> 4 mM (inactive)
15,Cc1cc(O)c(C)c(O)c1C(=O)O,> 4 mM (inactive)
16,OCc1ccc2nonc2c1,> 4 mM (inactive)
17,COc1ccccc1C(=O)NC1CCN(C)CC1,> 4 mM (inactive)
18,O=C(Nc1cccnc1)c1cccs1,> 4 mM (inactive)
19,O=C(Nn1cnnc1)c1ccccc1-c1ccccc1,> 4 mM (inactive)
20,CC1CC2(NC(=O)NC2=O)C(C)CN1C (stereo not drawn),> 4 mM (inactive)
21,Cc1ccc(-c2nn3c(C)nnc3s2)cc1N,> 4 mM (inactive)
22,Cn1ncc2c(=O)n(CC(=O)c3ccccc3)cnc21,> 4 mM (inactive)
23,Nc1ncnc(Nc2ccccc2C(F)(F)F)n1,> 4 mM (inactive)
24,O=C1C=CC2=C3c4cc(O)c(O)cc4C[C@@]3(O)COC2=C1,> 4 mM (inactive)
25,CC1=NN(C(N)=S)C(C)(C)C1,> 4 mM (inactive)

row,SMILES,Kd
1,COc1cc(C(C)=O)ccc1OCC(O)Cn1ccnc1 (stereo not drawn),> 4 mM (inactive)
2,CC(=O)N(c1ccccc1)C1C=CS(=O)(=O)C1 (stereo not drawn),> 4 mM (inactive)
3,c1coc(-c2nc(-c3ccncc3)no2)c1,> 4 mM (inactive)
4,CCc1ccc(OCC(=O)N2CCOCC2)cc1,0.435 mM
5,CC1(C)C(=O)C=C[C@@]2(C)C1C=C[C@]1(C)C2CC[C@@]2(C)[C@H](c3ccoc3)OC(=O)C3OC321 (stereo partly drawn),> 4 mM (inactive)
6,O=C(O)[C@H](O)[C@@](O)(Cc1ccc(O)cc1)C(=O)O,> 4 mM (inactive)
7,Cc1ccc(CCNc2ccccc2)c[n+]1[O-],> 4 mM (inactive)
8,Nc1ccccc1C(=O)N1CCNC(=O)C1,> 4 mM (inactive)
9,Nc1ccccc1C(=O)N1CCOCC1,> 4 mM (inactive)
10,NC(=O)c1ccsc1N,> 4 mM (inactive)
11,NCc1cccc2nsnc12,> 4 mM (inactive)
12,Cn1c(SCC(N)=O)nnc1-c1c[nH]c2ccccc12,> 4 mM (inactive)
13,COc1cccc(O)c1O,> 4 mM (inactive)
14,CNC(=S)Nc1ccc(C(=O)O)cc1,> 4 mM (inactive)
15,Cn1c(O)c(/C=C2\C=CC=N2)c(=O)[nH]c1=S,> 4 mM (inactive)
16,O=C(NCO)c1ccccc1Cl,> 4 mM (inactive)
17,O=S(=O)(c1ccc(F)c(Cl)c1)N1CCCC1,> 4 mM (inactive)
18,Nc1ncnc2nc(SCCN3CCCCC3)[nH]c12,> 4 mM (inactive)
19,Cc1cc(-c2ccc(Cl)cc2)n2nc(N)nc2n1,> 4 mM (inactive)
20,O=C(Nn1cnnc1)c1ccccc1Cl,> 4 mM (inactive)
21,CC1CCN(C(=O)c2ccc(NS(C)(=O)=O)cc2)CC1,> 4 mM (inactive)
22,Nc1ccccc1C(=O)CC(N)C(=O)O (stereo not drawn),> 4 mM (inactive)
23,Cc1cc(C)c(NC(=O)CN2CCC(O)CC2)c(C)c1,> 4 mM (inactive)
